Measurements taken from patent US20220306603A1, “TARGETING DNA REPAIR IN TUMOR CELLS VIA INHIBITION OF ERCC1-XPF” (The Governors of the University of Alberta, priority 2019, published 2022).
In brackets after ≈: the same amount, converted by molar mass. Like-named read-outs stand apart in the source and are kept apart here.

Assays:
ERCC1-XPF = target: T1, ERCC1-XPF (Homo sapiens, UniProt Q92889); experiment: Microplate fluorescence incision assay of ERCC1-XPF endonuclease activity; assay type: biochemical; details: for inhibition of ERCC1-XPF endonuclease activity (in words): compounds 10 μM each
T1 construct: His6; made in house; host or cells: E. coli BL21 (DE3)
T1 sequence (Q92889 1-916): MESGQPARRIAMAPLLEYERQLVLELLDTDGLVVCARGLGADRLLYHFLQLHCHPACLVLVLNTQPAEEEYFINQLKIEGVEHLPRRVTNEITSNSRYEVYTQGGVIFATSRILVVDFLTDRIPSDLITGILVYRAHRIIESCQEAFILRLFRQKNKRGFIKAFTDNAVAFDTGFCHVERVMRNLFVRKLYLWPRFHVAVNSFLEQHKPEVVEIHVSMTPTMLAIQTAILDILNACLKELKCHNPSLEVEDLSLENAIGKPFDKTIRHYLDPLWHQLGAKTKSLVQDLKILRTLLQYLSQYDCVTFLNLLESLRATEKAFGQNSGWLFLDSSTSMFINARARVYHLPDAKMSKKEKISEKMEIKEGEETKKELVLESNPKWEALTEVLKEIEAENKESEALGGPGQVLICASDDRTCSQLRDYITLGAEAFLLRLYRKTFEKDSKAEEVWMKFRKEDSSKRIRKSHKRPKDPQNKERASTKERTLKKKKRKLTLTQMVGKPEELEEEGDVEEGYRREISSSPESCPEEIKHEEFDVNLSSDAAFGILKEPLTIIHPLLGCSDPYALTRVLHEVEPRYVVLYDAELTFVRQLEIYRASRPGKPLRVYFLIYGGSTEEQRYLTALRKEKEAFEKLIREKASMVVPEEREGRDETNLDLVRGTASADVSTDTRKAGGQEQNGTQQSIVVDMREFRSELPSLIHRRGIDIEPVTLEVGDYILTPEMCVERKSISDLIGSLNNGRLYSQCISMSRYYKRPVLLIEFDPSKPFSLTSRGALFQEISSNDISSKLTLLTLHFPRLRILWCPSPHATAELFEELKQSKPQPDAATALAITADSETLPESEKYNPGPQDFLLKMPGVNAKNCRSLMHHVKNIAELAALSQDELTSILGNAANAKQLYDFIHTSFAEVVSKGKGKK
Source text: This assay has been previously described (29), and utilizes a stem-loop substrate (composed of a 10mer-duplex stem and a 20mer-oligodT single-strand loop), labelled on the 5′-terminus with 6-FAM and 3′ with the quencher dabcyl.
Human ERCC1-XPF wild-type protein was obtained as previously described (29). Basically, the recombinant protein was expressed from a bicistronic plasmid (provided by Dr. Richard Wood, University of Texas MD Anderson Cancer Center, Smithville, Tex.) in the E. coli BL21 (DE3) strain. Since both XPF and ERCC1 contained a polyhistidine (His-6) tag, the proteins extracted from E. coli were incubated with a ProBond Nickel-Chelating Resin (Thermo Fisher Scientific). Protein eluted from the Ni affinity column was subsequently loaded into a Hi-trap heparin column (GE Healthcare). Fractions recovered from the heparin column that contained ERCC1-XPF were dialyzed, concentrated and stored at −80° C. in 10 mM HEPES pH 7.4, 2.5 mM p-mercaptoethanol, 0.01% CHAPS, 0.25 mM EDTA, 50% glycerol and 25 mM NaCl.
A previously described protocol (2,29) was followed.

[1] = tested on: five CYP450 tested enzymes; experiment: ADME screening: CYP inhibition (five CYP450 enzymes); details: Table 8
[2] = tested on: five CYP450 enzymes (CYP1A2, CYP2C9, CYP2C19, CYP2D6, CYP3A4-M); experiment: as above; details: human
[3] = Hepatocyte stability in vitro; assay type: in vitro ADME; details: Table 8
cancer cells = details: cited from earlier work
serum proteins = experiment: ADME screening: serum protein binding; assay type: in vitro ADME; details: Table 8
[4] = tested on: interaction between ERCC1 and XPF; details: in vitro; cited from earlier work
HCT116 cells [5] = experiment: Cytotoxicity profile: crystal violet viability assay (and colony forming assay); assay type: cell-based, human; details: 5 μM, 3 days exposure, crystal violet
Description: Crystal violet viability assays were carried out to assess the cellular toxicity of these compounds to HCT116 cells and to choose relatively non-cytotoxic concentrations to be further utilised in sensitizing cells to UV radiation or cyclophosphamide.
The beneficial effect is especially visible at a concentration of 5.0 μM. At higher concentrations, both compounds show an equal cytotoxic effect (FIG. 15).

[6] = ADME screening: solubility; assay type: physicochemical; details: Table 8
[7] = Microsomal stability in vitro (human liver microsomes); details: for Microsomal stability in vitro CLint (in words): Table 8
HCT116 cells [8] = experiment: Clonogenic survival assay, UV treatment; assay type: cell-based, human; details: 254 nm UV 0-10 J/m^2; compound 0.5-4 μM
Description: UV treatment: HCT116 cells (100-800 cells depending on the UV dose) were plated in triplicate in 60-mm petri dishes. The cells were incubated overnight at 37° C. in a humidified atmosphere containing 5% CO2 to allow for cell attachment. […] Medium was removed again, and cells were exposed to increasing doses (0-10 J/m^2) of UV-C radiation and then incubated for a further 10 days in the presence of inhibitor at 37° C. in a 5% CO2 atmosphere to allow for colony formation. After this period plates were stained with crystal violet and colonies were counted using a Colcount instrument (Oxford Optronix, Abingdon UK). Finally, plating efficiency and surviving fraction were calculated.

ERCC1-XPF complex = target: T2, ERCC1-XPF complex (Homo sapiens, UniProt Q92889); experiment: Steady-state intrinsic tryptophan fluorescence quenching binding assay
T2 construct: His6; made in house; host or cells: E. coli BL21 (DE3)
T2 sequence (Q92889 1-916): T1 sequence (Q92889 1-916)
Description: Steady-state fluorescence spectra were measured at room temperature on a Perkin-Elmer LS-55 spectrofluorometer (Freemont, Calif.) with 5 nm spectral resolution for excitation and emission using 30-80 nM solution of purified recombinant ERCC1-XPF protein complex. […] In studying the effects of inhibitors on protein fluorescence intensities, additions to protein samples were made from inhibitors stock solutions, keeping the protein dilution below 3%.

[9] = ADME screening: cell permeability and efflux ratio; details: for Cell permeability (Mean recovery %) (in words): Table 8; for efflux ratio: not told
HCT116 cells [10] = experiment: Cellular repair of UV-induced cyclobutane pyrimidine dimers (immunofluorescence); assay type: cell-based, human; details: 8 J/m^2 UV-C, up to 24 h post-irradiation
Description: Protocol of Mirzayans et al. was followed with minor modifications (30). Approximately 1×10^5 HCT116 cells were seeded on each coverslip and allowed to attach overnight. Medium was then removed and cells were treated for one hour with the desired compound. The medium was removed, and cells were exposed to 8 J/m^2 UV-C radiation (G15T8 254 nm lamp, Ushio America Inc, Cypress, Calif.) followed by adding fresh medium containing the compound. Plates were incubated at 37° C. for different periods of time up to 24 hours and fixed in 50:50 methanol/1× phosphate-buffered saline (PBS) solution, followed by replacing the methanol/PBS solution with 100% methanol and incubation in −20° C. After 20 minutes, methanol was removed, and cells were treated with PBS for 5 minutes in room temperature. After fixing, cells were permeabilized in 0.5% Triton/PBS and washed with PBS, denatured in 2 N HCl, and neutralized by twice washing with 0.1 M borate buffer pH 8.5. Cells on cover slips were washed once with PBS followed by blocking with 5% non-fat dry milk/PBS for 30 minutes. Mouse anti-thymine dimer monoclonal antibody (Cat. No. MC-062, Kamiya Biomedical Company, Seattle, Wash.) was applied to the cover slips for one hour in the dark and at room temperature. Cells were then washed with PBS containing 0.1% Tween-20 and incubated with rabbit anti-mouse IgG-Alexafluor antibody (Invitrogen, Carlsbad, Calif.) followed by two washes with PBS/(0.1%)Tween-20. Cells on coverslips were then washed with PBS, rinsed with water, and mounted on slides using DAPI glycerol mounting solution. Slides were kept at 4° C. before fluorescent microscopic evaluation and measurement of fluorescence intensity with MetaXpress Version: 6.2.1.704 software (Molecular Devices, Sunnyvale, Calif.).
To test for inhibition of nucleotide excision repair, we monitored the cellular removal of UVC-induced cyclobutane pyrimidine dimers (CPDs) in HCT116 cells over a 24-hour period using an immunochemical assay.

DNA = experiment: Binding constant to DNA; details: Table 7
HCT116 cells [11] = experiment: Clonogenic survival assay, cyclophosphamide treatment; assay type: cell-based, human; details: cyclophosphamide 0-300 μM; compound 1-4 μM
Description: Plates were incubated for another 8 days at 37° C. in a 5% CO2 atmosphere for colony formation. After this period plates were stained with crystal violet, colonies were counted, and plating efficiency and surviving fraction were calculated.

COc1ccc2nc3cc(Cl)ccc3c(Nc3ccc(O)c(CN4CCN(C)CC4)c3)c2c1 [Compound F06, 4-((6-Chloro-2-methoxyacridin-9-yl)amino)-2-((4-methylpiperazin-1-yl)methyl)phenol, reference compound]
IC50 (ERCC1-XPF): 1860 nM
IC50 (ERCC1-XPF; Table 7, at least three experiments of Vo versus concentration): 1860 ± 250 nM
inhibition of ERCC1-XPF endonuclease activity (in words) (ERCC1-XPF): marked capacity to inhibit
IC50 (ERCC1-XPF; read-out: IC50 of ERCC1-XPF endonuclease activity, full-length ERCC1-XPF, 30 minutes incubation, 5% DMSO): 1860 ± 250 nM
IC50 (ERCC1-XPF; read-out: IC50 ± SD, Table 6, at least three experiments of Vo versus concentration, 30 minutes incubation, 5% DMSO): 1860 ± 250 nM
CVP inhibition (5 enzyme) (rating) [1]: Moderate
IC50 [2]: ≥ 1000 nM
Hepatocyte stability in vitro CLint (in words) [3]: (medium clearance)
CLint scaled ([3]; hepatocytes): < 17.8 mL/min/kg
sensitization of cancer cells to MMC and cisplatin (in words) (cancer cells): sensitized cancer cells to MMC and cisplatin
Serum protein binding (% bound) (serum proteins): (99.9) % bound
Serum protein binding (in words) (serum proteins): Strong binding
effect on the interaction between ERCC1 and XPF (in words) [4]: repressed the interaction between ERCC1 and XPF in vitro
cells survived (HCT116 cells [5]): about 35%
Solubility (in words) [6]: (partially soluble)
solubility ([6]; <1.56 means below lower limit of quantilation): 8.13 µM (≈ 3.76 µg/mL)
Microsomal stability in vitro CLint (in words) [7]: high
CLint scaled ([7]; human, liver microsomes): 53.7 mL/min/kg
sensitisation to UV radiation, clonogenic survival (in words) (HCT116 cells [8]): modest sensitisation capacity
Kd (ERCC1-XPF complex; Table 6, read-out: Kd ± SD): 140 ± 5 nM
Kd (ERCC1-XPF complex; Table 7, read-out: Kd protein): 140 ± 5 nM
Cell permeability (Mean recovery %) (in words) [9]: Low (common)
efflux ratio [9]: > 2
efflux ratio ([9]; efflux ratio): 11.2
LogD (rating) (ADME screening: LogD; Table 8): Good
LogD (remark in the LogD row) (ADME screening: LogD; Table 8): (partially soluble)
logD (ADME screening: LogD; Table 8): 3.86
log D (ADME screening: LogD; pH 7.4): 3.86

CN(C)CCN1CCN(Cc2cc(Nc3c4ccc(Cl)cc4nc4ccc(O)cc34)ccc2O)CC1 [Gen B9]
inhibition of ERCC1-XPF endonuclease activity (in words) (ERCC1-XPF): marked capacity to inhibit
IC50 (ERCC1-XPF; full-length ERCC1-XPF, 30 minutes incubation, 5% DMSO, read-out: IC50 of ERCC1-XPF endonuclease activity): 490 nM
inhibition of cellular removal of CPDs / thymidine dimers (in words) (HCT116 cells [10]): significantly inhibited the removal of CPDs
inhibition of cellular removal of CPDs / thymidine dimers (in words) (HCT116 cells [10]; listed as B9): significantly different
Kd (DNA): 1050 ± 50 nM
cells survived (HCT116 cells [5]): approximately 95%
Solubility (in words) [6]: Unstable
sensitisation to cyclophosphamide, clonogenic survival (in words) (HCT116 cells [11]): significantly sensitised the HCT116 cells to cyclophosphamide
metabolism on exposure to human liver microsomes (in words) [7]: moderate metabolism
Microsomal stability in vitro CLint (in words) [7]: Moderate
sensitisation to UV radiation, clonogenic survival (in words) (HCT116 cells [8]): significantly reduced the survival
Kd (ERCC1-XPF complex; Table 7, read-out: Kd protein): 85 ± 5 nM
Cell permeability (Mean recovery %) (in words) [9]: Low
efflux ratio [9]: > 2
LogD (rating) (ADME screening: LogD; Table 8): Good
logD (ADME screening: LogD; pH 7.4): 2.01
